In series [1] the test system is Chenopodium album. The experiment in a line: Test Example 5: herbicidal effect by foliage application, plastic box (symbol O). The format is in vivo. Conditions: 320 g/ha, 3 weeks after application. A digest of the protocol:
(§1)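 After sowing into sterilized diluvial soil and growing two weeks under glass at 25° C. to 30° C., seedlings receive a uniform foliar spray of diluted emulsion. Damage is judged visually three weeks on.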

A further series has as its system Setaria viridis. The experiment in a line: Test Example 4: herbicidal effect by soil treatment (symbol G). Format: in vivo. The note with it: application herbicide amount 320 g/ha. A digest of the protocol: (§2)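 Seeds were sown in sterilized diluvial soil, covered with about 1.5 cm of soil, and the soil surface was sprayed with a water-diluted emulsion of the compound at a predetermined rate. Plants grew in a greenhouse at 25° C. to 30° C.; effects were scored visually 3 weeks after application.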

Series [2] concerns Echinochloa crus-galli var. crus-galli. The experiment in a line: Test Example 5: herbicidal effect by foliage application, plastic box (symbol H). The format is in vivo. Conditions: 320 g/ha, 3 weeks after application. In outline:
as §1

For a further series, the system named is Alopecurus myosuroides. The experiment in a line: Test Example 4: herbicidal effect by soil treatment (symbol J). The format is in vivo. Conditions: application herbicide amount 320 g/ha. A digest of the protocol:
as §2

The subject of series [3] is Stellaria media. The experiment in a line: Test Example 5: herbicidal effect by foliage application, plastic box (symbol P). Format: in vivo. The note with it: 320 g/ha, 3 weeks after application. In outline: as §1
The next series relates to Leptochloa chinensis. The experiment in a line: Test Example 3: herbicidal effect by foliage application, Wagner pot (symbol D). The note with it: application herbicide amount 320 g/ha. Format: in vivo. In outline: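 Scoring took place 3 weeks after application, using fixed criteria. Plants had been raised from seed for 14 days at 25 to 30 °C in submerged alluvial soil before a diluted emulsion of the test compound was sprayed uniformly on the leaves.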

Another series has as its system Amaranthus retroflexus. The experiment in a line: Test Example 5: herbicidal effect by foliage application, plastic box (symbol N). Format: in vivo. Conditions: 320 g/ha, 3 weeks after application. In outline:
as §1

For series [4], the system named is Chenopodium album. The series can be described thus: Test Example 4: herbicidal effect by soil treatment (symbol O). The format is in vivo. Conditions: application herbicide amount 320 g/ha. A digest of the protocol:
as §2

A further series has as its system Monochoria vaginalis. The experiment in a line: Test Example 1: herbicidal activity, application before weed generation in submerged conditions (symbol C). The format is in vivo. Conditions: application herbicide amount 320 g/ha. A digest of the protocol: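 Ratings (5: ≥90%, near complete withering; 4: 70–<90%; 3: 40–<70%; 2: 20–<40%; 1: 5–<20%; 0: ≤5%) were assigned 3 weeks after the diluted emulsion was applied to the water surface of freshly sown, submerged pots.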

The next series deals with Lolium multiflorum Lam. The series can be described thus: Test Example 5: herbicidal effect by foliage application, plastic box (symbol K). Format: in vivo. The note with it: 320 g/ha, 3 weeks after application. In outline: as §1
The subject of another series is Apera spica-venti. The experiment in a line: Test Example 4: herbicidal effect by soil treatment (symbol L). Format: in vivo. The note with it: application herbicide amount 320 g/ha. In outline:
as §2

Series [5] deals with Stellaria media. The series can be described thus: Test Example 4: herbicidal effect by soil treatment (symbol P). Format: in vivo. The note with it: application herbicide amount 320 g/ha. A digest of the protocol:
as §2

For the next series, the system named is transplanted rice plant. The experiment in a line: Test Example 1: effect on crop, application before weed generation in submerged conditions (symbol a). The format is in vivo. Conditions: application herbicide amount 320 g/ha. In outline:
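Alluvial soil pots flooded to 4 cm water, sown with Echinochloa oryzacola, Scirpus juncoides and Monochoria vaginalis, then transplanted with 2.5 leaf stage rice seedlings; pre-emergence application. Greenhouse 25° C. to 30° C.; scored 0–5 by herbicidal ratio 3 weeks after application.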

A further series has as its system Abutilon theophrasti. The experiment in a line: Test Example 5: herbicidal effect by foliage application, plastic box (symbol M). Conditions: 320 g/ha, 3 weeks after application. Format: in vivo. A digest of the protocol:
as §1

For the next series, the system named is Avena fatua. The experiment in a line: Test Example 4: herbicidal effect by soil treatment (symbol I). Conditions: application herbicide amount 320 g/ha. Format: in vivo. A digest of the protocol: as §2
In another series the test system is corn. The series can be described thus: Test Example 5: effect on crop by foliage application, plastic box (symbol c). The note with it: 320 g/ha, 3 weeks after application. Format: in vivo. In outline:
(§3)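 Greenhouse culture at 25° C. to 30° C. followed spot-like sowing into sterilized diluvial soil, with seed covered by roughly 1.5 cm of soil.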

Another series concerns Galium spurium. The series can be described thus: Test Example 4: herbicidal effect by soil treatment (symbol Q). Format: in vivo. The note with it: application herbicide amount 320 g/ha. In outline: as §2
For the next series, the system named is Veronica persica. The experiment in a line: Test Example 4: herbicidal effect by soil treatment (symbol R). Format: in vivo. Conditions: application herbicide amount 320 g/ha. A digest of the protocol:
as §2

The next series deals with rapeseed. The series can be described thus: Test Example 5: effect on crop by foliage application, plastic box (symbol g). Format: in vivo. Conditions: 320 g/ha, 3 weeks after application. A digest of the protocol: as §3

The compound `CON=C(C)CC1CC(O)=C(c2c(C)cc(C)cc2C)C1=O` (stereo not drawn) [1-002, 3-hydroxy-2-mesityl-5-{2-(methoxyimino)propyl}cyclopent-2-enone] gave a melting point of 170 to 173 °C. The “O: Chenopodium album, herbicidal effect grade” value (shortened to “O: Chenopodium album”) with Chenopodium album [1] is 4 (Herbicidal ratio of 70% or higher and lower than 90%). Further, the “G (Setaria viridis) herbicidal effect grade” value in the series with Setaria viridis was 3 (Herbicidal ratio of 40% or higher and lower than 70%). Further, the “H: Echinochloa crus-galli var. crus-galli, herbicidal effect grade” value in [2] was 5 (Herbicidal ratio of 90% or more (almost completely withered)). Also, the “J (Alopecurus myosuroides) herbicidal effect grade” value with Alopecurus myosuroides is on record as 5 (Herbicidal ratio of 90% or more (almost completely withered)). Moreover, in the series on Stellaria media [3], the “P: Stellaria media, herbicidal effect grade” value (“P: Stellaria media” below) was 4 (Herbicidal ratio of 70% or higher and lower than 90%). Moreover, the “herbicidal effect on D (Leptochloa chinensis), grade 0-5” value (“herbicidal effect on D” below) with Leptochloa chinensis was 5 (Herbicidal ratio of 90% or more (almost completely withered)). For the same compound, the “N: Amaranthus retroflexus, herbicidal effect grade” value (from here on “N: Amaranthus retroflexus”) in the series on Amaranthus retroflexus is on record as 5 (Herbicidal ratio of 90% or more (almost completely withered)). For the same compound, the “O (Chenopodium album) herbicidal effect grade” value in the series with Chenopodium album [4] is listed as 5 (Herbicidal ratio of 90% or more (almost completely withered)). Also, in the series with Monochoria vaginalis, the “Herbicidal effect grade, C: Monochoria vaginalis” value (“Herbicidal effect grade, C” below) was 4 (Herbicidal ratio of 70% or higher and lower than 90%). For the same compound, the “K: Lolium multiflorum Lam., herbicidal effect grade” value in the series on Lolium multiflorum Lam. is listed as 5 (Herbicidal ratio of 90% or more (almost completely withered)). The “L (Apera spica-venti) herbicidal effect grade” value in the series on Apera spica-venti is 5 (Herbicidal ratio of 90% or more (almost completely withered)). For the same compound, in the series with Stellaria media [5], the “P (Stellaria media) herbicidal effect grade” value is 3 (Herbicidal ratio of 40% or higher and lower than 70%). Also, the “Effect grade on crop, a: transplanted rice plant” value (from here on “Effect grade on crop”) in the series with transplanted rice plant was 5 (Herbicidal ratio of 90% or more (almost completely withered)). For the same compound, the “M: Abutilon theophrasti, herbicidal effect grade” value (“M: Abutilon theophrasti” for short) in the series with Abutilon theophrasti was 4 (Herbicidal ratio of 70% or higher and lower than 90%). Besides, in the series with Avena fatua, the “I (Avena fatua) herbicidal effect grade” value is listed as 5 (Herbicidal ratio of 90% or more (almost completely withered)). For the same compound, in the series on corn, the “c: corn, effect on crop grade” value is 5 (Herbicidal ratio of 90% or more (almost completely withered)). In addition, the “Q (Galium spurium) herbicidal effect grade” value in the series with Galium spurium is 1 (Herbicidal ratio of 5% or higher and lower than 20%). Besides, in the series with Veronica persica, the “R (Veronica persica) herbicidal effect grade” value is on record as 5 (Herbicidal ratio of 90% or more (almost completely withered)). Besides, in the series with rapeseed, the “g: rapeseed, effect on crop grade” value is on record as 5 (Herbicidal ratio of 90% or more (almost completely withered)).

`CC(CC1CC(O)=C(c2c(C)cc(C)cc2C)C1=O)=NOC(C)C` (stereo not drawn) [1-052] showed a melting point of 93 to 95 °C. In addition, the “O: Chenopodium album” value in the series with Chenopodium album [1] was 1 (Herbicidal ratio of 5% or higher and lower than 20%). In the series on Setaria viridis, the “G (Setaria viridis) herbicidal effect grade” value is listed as 5 (Herbicidal ratio of 90% or more (almost completely withered)). For the same compound, the “H: Echinochloa crus-galli var. crus-galli, herbicidal effect grade” value in [2] is 5 (Herbicidal ratio of 90% or more (almost completely withered)). Further, in the series with Alopecurus myosuroides, the “J (Alopecurus myosuroides) herbicidal effect grade” value is on record as 5 (Herbicidal ratio of 90% or more (almost completely withered)). Further, the “P: Stellaria media” value in the series on Stellaria media [3] is reported as 0 (Herbicidal ratio of 5% or lower (almost no effect)). Further, the “herbicidal effect on D” value in the series on Leptochloa chinensis is 5 (Herbicidal ratio of 90% or more (almost completely withered)). In the series with Amaranthus retroflexus, the “N: Amaranthus retroflexus” value is reported as 0 (Herbicidal ratio of 5% or lower (almost no effect)). In addition, in the series with Chenopodium album [4], the “O (Chenopodium album) herbicidal effect grade” value is 0 (Herbicidal ratio of 5% or lower (almost no effect)). The “Herbicidal effect grade, C” value in the series on Monochoria vaginalis is given as 0 (Herbicidal ratio of 5% or lower (almost no effect)). Besides, the “K: Lolium multiflorum Lam., herbicidal effect grade” value in the series with Lolium multiflorum Lam. is 5 (Herbicidal ratio of 90% or more (almost completely withered)). Further, in the series with Apera spica-venti, the “L (Apera spica-venti) herbicidal effect grade” value is on record as 5 (Herbicidal ratio of 90% or more (almost completely withered)). For the same compound, in the series with Stellaria media [5], the “P (Stellaria media) herbicidal effect grade” value was 0 (Herbicidal ratio of 5% or lower (almost no effect)). The “Effect grade on crop” value in the series on transplanted rice plant is 5 (Herbicidal ratio of 90% or more (almost completely withered)). Further, in the series with Abutilon theophrasti, the “M: Abutilon theophrasti” value was 3 (Herbicidal ratio of 40% or higher and lower than 70%). Moreover, in the series on Avena fatua, the “I (Avena fatua) herbicidal effect grade” value was 4 (Herbicidal ratio of 70% or higher and lower than 90%). Also, in the series with corn, the “c: corn, effect on crop grade” value was 4 (Herbicidal ratio of 70% or higher and lower than 90%). For the same compound, in the series with Veronica persica, the “R (Veronica persica) herbicidal effect grade” value was 0 (Herbicidal ratio of 5% or lower (almost no effect)). Moreover, in the series with rapeseed, the “g: rapeseed, effect on crop grade” value was 4 (Herbicidal ratio of 70% or higher and lower than 90%).

`CCON=C(C)CC1CC(O)=C(c2c(C)cc(C)cc2C)C1=O` (stereo not drawn) [1-003] gave a melting point of 135 to 140 °C. Further, the “O: Chenopodium album” value in the series on Chenopodium album [1] was 3 (Herbicidal ratio of 40% or higher and lower than 70%). Also, the “G (Setaria viridis) herbicidal effect grade” value in the series on Setaria viridis is 3 (Herbicidal ratio of 40% or higher and lower than 70%). Also, the “H: Echinochloa crus-galli var. crus-galli, herbicidal effect grade” value in series [2] was 5 (Herbicidal ratio of 90% or more (almost completely withered)). Also, the “J (Alopecurus myosuroides) herbicidal effect grade” value in the series with Alopecurus myosuroides is reported as 5 (Herbicidal ratio of 90% or more (almost completely withered)). Further, the “P: Stellaria media” value in the series on Stellaria media [3] is 2 (Herbicidal ratio of 20% or higher and lower than 40%). Moreover, the “herbicidal effect on D” value in the series with Leptochloa chinensis was 5 (Herbicidal ratio of 90% or more (almost completely withered)). The “N: Amaranthus retroflexus” value in the series with Amaranthus retroflexus was 3 (Herbicidal ratio of 40% or higher and lower than 70%). Further, the “Herbicidal effect grade, C” value in the series on Monochoria vaginalis is recorded as 5 (Herbicidal ratio of 90% or more (almost completely withered)). Further, the “K: Lolium multiflorum Lam., herbicidal effect grade” value with Lolium multiflorum Lam. is 5 (Herbicidal ratio of 90% or more (almost completely withered)). In addition, the “L (Apera spica-venti) herbicidal effect grade” value in the series on Apera spica-venti is on record as 5 (Herbicidal ratio of 90% or more (almost completely withered)). Moreover, the “P (Stellaria media) herbicidal effect grade” value with Stellaria media [5] is 3 (Herbicidal ratio of 40% or higher and lower than 70%). Further, the “Effect grade on crop” value in the series with transplanted rice plant is given as 5 (Herbicidal ratio of 90% or more (almost completely withered)). In addition, in the series on Abutilon theophrasti, the “M: Abutilon theophrasti” value is 4 (Herbicidal ratio of 70% or higher and lower than 90%). In addition, in the series on Avena fatua, the “I (Avena fatua) herbicidal effect grade” value is 4 (Herbicidal ratio of 70% or higher and lower than 90%). For the same compound, the “c: corn, effect on crop grade” value with corn is 5 (Herbicidal ratio of 90% or more (almost completely withered)). Further, the “Q (Galium spurium) herbicidal effect grade” value in the series with Galium spurium was 0 (Herbicidal ratio of 5% or lower (almost no effect)). Further, the “g: rapeseed, effect on crop grade” value in the series on rapeseed was 4 (Herbicidal ratio of 70% or higher and lower than 90%).

In general, melting point refers to the temperature, or range, at which the solid turns liquid.

Values taken from US11000033B2, “Ketone or oxime compound, and herbicide” (NISSAN CHEMICAL CORPORATION, priority 2014, dated 2021).
